Test results as given in US9102835B2, “Methods of using dyes in association with nucleic acid staining or detection and associated technology” (Biotium, Inc., priority 2005, dated 2015).
Entries after “also recorded” stand apart in the source; their conditions may differ.

Legend:
[1] = system: 1 kb Plus DNA Latter in agarose gel; assay: Post-DNA gel staining
Method: Serial two-fold dilutions of 1 kb Plus DNA Latter from Invitrogen Co. (Carlsbad, Calif.) were made and the resulting DNA samples were loaded onto an agarose gel in four lanes from left to right with a loading of 200 ng, 100 ng, 50 ng, and 25 ng per lane, respectively. The DNA samples were electrophoretically separated in 1×TBE buffer using a standard protocol. The nucleic acid sample was loaded onto the gel from in four columns from left to right with a loading of 200 ng, 100 ng, 50 ng, and 25 ng per lane, respectively, and electrophoretically separated in 1×TBE buffer using a standard protocol. A stock solution of a Dye No. 20 of Table 1 in DMF at about 12 mM concentration was prepared. […] The agarose gel was submerged in the staining solution for approximately 30 minutes to stain the gel. The resulting gel was then viewed using a UV transilluminator with 254 nm excitation.
A similar procedure was followed to prepare post gel staining solutions of Dye No. 29 of Table 1, except that Dye No. 29 was used in place of Dye No. 20 and at various conditions, as now described. […] Identical DNA samples were prepared, loaded onto three separate agarose gels, and separated via standard gel electrophoreses, in the manner described above. Each of the three separate gels was then stained by immersion in a different one of the resulting gels for about 30 minutes. […]

[2] = system: 1 kb Plus DNA Latter in agarose gel; assay: Pre-cast DNA gel staining; details: 1.2 μM in TBE versus EB 1.3 μM; 300 nm UV
Method: An agarose gel solution (1% agarose) was prepared following a standard protocol (J. Roskams et al., Lab Ref: A Handbook of Recipes, Reagents, and Other Reference Tools for Use at the Bench, Cold Spring Harbor Laboratory Press, Cold Spring Harbor, N.Y., 2002). A stock solution of a Dye No. 35 (ET-27) of Table 1 in DMF at 12 mM concentration was prepared. An aliquot of the stock solution of dye was added to the gel solution, while it was hot, resulting in an effective working concentration of the dye of about 1.2 μM. The resulting solution was thoroughly mixed by swirling. The resulting gel solution was poured onto a gel slab to cast the gel. Serial two-fold dilutions of 1 kb Plus DNA Latter from Invitrogen Co. (Carlsbad, Calif.) were made and the resulting DNA samples were loaded onto the gel in four lanes from left to right with a loading of 200 ng, 100 ng, 50 ng, and 25 ng per lane, respectively. The DNA samples were electrophoretically separated in 1×TBE buffer using a standard protocol. The resulting gel was then viewed using a UV transilluminator with 300 nm excitation. The same procedure was followed using a stock solution of EB at about 0.5 μg/mL (or 1.3 μM) in DMF in place of the stock solution of Dye No. 35 of Table 1.
It should be noted that other dyes described herein may be prepared and employed in the manner described in this Example 49, or a similar manner.

[3] = Stability in TBE buffer, optical density at absorption maximum over 24 hours; assay type: physicochemical; details: 1.2 μM in 1×TBE buffer, room temperature, monitored at 500 nm
Method: SYBR Gold 10,000× in DMSO from Molecular Probes, Inc. (Eugene, Oreg.) was diluted to 1× working concentration, as recommended by the manufacturer, in 1×TBE buffer. A stock solution of Dye No. 35 of Table 1 in DMSO (12 mM) was diluted to 1.2 μM in 1×TBE buffer. The optical density associated with each of the solutions was monitored at the absorption maximum of the dye (488 nm for SYBR Gold and 500 nm for Dye No. 35) over the course of a 24-hour period at room temperature.

[4] = Hydrolytic, thermal and storage stability in water, electrophoresis buffers and pre-cast gels; assay type: physicochemical
[5] = system: Salmonella typhimurium bacteria, strain TA98; assay: Mutagenicity assay, Muta-ChromoPlate test kit (based on the Ames Test, bacterial reverse mutation); details: for Mutagenicity relative to the negative control: in the absence of S9 extract; for Positive wells: with S9 extract (rat liver); for Positive wells / Positive wells, Exp 1 / Positive wells, Exp 2: positive wells out of 36, TA98; for Positive wells, Exp 1 / Positive wells, Exp 2: without S9 extract
From the text: The test kit is based on the Ames Test, a bacterial reverse mutation test. The test employs a mutant strain, or several strains, of Salmonella typhimurium bacteria, carrying mutation(s) in the operon coding for histidine biosynthesis. When the bacteria are exposed to mutagenic agents under certain conditions, reverse mutation from amino acid (histidine) auxotrophy to prototrophy occurs. […] S9 extract is a rat liver extract that comprises various metabolic enzymes. The tests associated with the presence of S9 extract were undertaken to give information on the potential genotoxicity of the metabolized dyes. […] Each single test was carried out using 36 wells and the number of positive wells out of each 36 wells was taken as an indicator of the relative mutagenicity levels of the dye under the test conditions. As a negative control, bacteria were also incubated in the absence of a dye.
Mutagenicity assays were carried out using a Muta-ChromoPlate test kit from EBPI (Brampton, Ontario, Canada). […] A solution without a dye (zero dose level) was assayed in the absence and presence of S9 extract, as a control or negative control. S9 extract is a rat liver extract that comprises various metabolic enzymes. The tests associated with the presence of S9 extract were undertaken to provide information on the potential genotoxicity of the metabolized dyes. […] Each single test was carried out using 36 wells and the number of positive wells out of each 36 wells was taken as an indicator of the relative mutagenicity levels of the dye under the test conditions.

[6] = system: Salmonella typhimurium bacteria, strain TA98; details: cited from earlier work
[7] = cited from earlier work
[8] = pre-cast gel prepared with the dye

Structure (SMILES) | Mutagenicity relative to the negative control [5] | Positive wells ([5]; 0.25 nmole) | Positive wells ([5]; 2.5 nmoles) | Positive wells ([5]; 25 nmoles) | Positive wells, Exp 1 ([5]; 0.25 nmole) | Positive wells, Exp 2 ([5]; 0.25 nmole) | Positive wells, Exp 1 ([5]; 2.5 nmoles) | Positive wells, Exp 2 ([5]; 2.5 nmoles) | Positive wells, Exp 1 ([5]; 25 nmoles) | Positive wells, Exp 2 ([5]; 25 nmoles) | other results
C[n+]1c(C=C2C=CN(CCCCCC(=O)NCCCOCCOCCOCCCNC(=O)CCCCCN3C=CC(=Cc4sc5ccccc5[n+]4C)c4ccccc43)c3ccccc32)sc2ccccc21 [Dye No. 29, TOTO-13] | – | – | – | – | – | – | – | – | – | – | Sensitivity in post-DNA gel staining versus SYBR Safe and SYBR Green I ([1]; dye 3.6 μM, SYBR dyes 1× in TBE, 200-25 ng DNA per lane, 254-nm UV transilluminator): substantially more sensitive than SYBR Safe and is as sensitive as SYBR Green I
Nc1ccc2c(c1)c(-c1ccccc1)[n+](CCCCCC(=O)NCCCOCCOCCOCCCNC(=O)CCCCC[n+]1c(-c3ccccc3)c3cc(N)ccc3c3ccc(N)cc31)c1cc(N)ccc21 [Dye No. 35, ET-27] | very weak mutagenicity | 0 | 9 | 0 | 2 | 0 | 1 | 3 | 1 | 3 | Sensitivity with respect to low level DNA, relative to EB [2]: more sensitive with respect to low level DNA; Sensitivity with respect to shorter DNA fragments, relative to EB [2]: more sensitive with respect to shorter DNA fragments; Absorbance over the 24-hour period [3]: relatively constant; Time heated in a microwave oven without decomposition ([4]; dye in TBE buffer): 10 min; Storage time of pre-cast gel without loss of performance [4, 8]: 3 months; Time stable in an electrophoresis buffer, such as TBE buffer ([4]; room temperature): 6 months; Toxicity and mutagenicity, overall statement ([5]; comparison of Dye No. 35 with EB): relatively low in toxicity and mutagenicity; also recorded: may be less mutagenic than EB
CC[n+]1c(-c2ccccc2)c2cc(N)ccc2c2ccc(N)cc21 [EB, ethidium bromide, reference compound] | very weak mutagenicity | 22 | 17 | 16 | 0 | 0 | 0 | 3 | 0 | 3 | Frame shift mutagenicity in Ames Test (known) [6]: known frame shift mutagen; Mutagenicity ([5]; in the presence of S9 extract): significantly greater mutagenicity than Dye No. 35
CCCN(CCCN(C)C)c1cc(/C=C2/Sc3ccccc3N2C)c2ccccc2[n+]1-c1ccccc1 [SYBR Green I] | – | – | – | – | – | – | – | – | – | – | Hydrolytic stability ([7]; aqueous solution, particularly buffers having a pH of 7 or more): hydrolytically unstable; Time within which pre-cast gel is used before losing utility [7, 8]: 24 h; DNA band brightness in post-DNA gel staining ([1]; staining solution in 1×TBE that lacked NaCl): relatively weaker or less bright DNA bands overall
